Test system: 874868-142-R-J2-PDC complex spheroids, growth % test/control
Test: Anticancer human tumor 874868-142-R-J2-PDC patient-derived head and neck squamous carcinoma cell line growth inhibition [CLK]
Conditions: for IC50: curve of first compound; for viability, T/C: stronger effect = lower value
Outline: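 Patient-derived tumor cells grown as complex spheroids with HUVEC endothelial cells and mesenchymal stem cells, treated with drug combinations. Concentrations descend in half-log steps from near clinical Cmax, or from 10 microM if Cmax unknown.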
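Also: spheroids exposed to the compounds for 7 days.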
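For viability, T/C in this document: 100% = DMSO vehicle control viability.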

`CC(C)CC(NC(=O)C(Cc1ccccc1)NC(=O)c1cnccn1)B(O)O` (centres undefined) + CN1CCN(c2cc(C(=O)Nc3cc4cc(-c5cnn(C)c5)ccc4cn3)ccn2)CC1 was tested, and the IC50 (second compound 0.0316 µM) was 4.88 nM, the IC50 (second compound 0.1 µM) was 4.5 nM and the IC50 (second compound 0.316 µM) was less than 0.949 nM. For the same compound, the IC50 (second compound 1 µM) was less than 0.949 nM, the IC50 (second compound 3.16 µM) was less than 0.949 nM and the IC50 (second compound 10 µM) was less than 0.949 nM. For the same compound, the viability, T/C (second compound 0.0316 µM, first compound 0.000949 µM) was 79.4%, the viability, T/C (second compound 0.0316 µM, first compound 0.003 µM) was 91.5% and the viability, T/C (second compound 0.0316 µM, first compound 0.00949 µM) was 1.41%. For the same compound, the viability, T/C (second compound 0.0316 µM, first compound 0.03 µM) was 0.55%, the viability, T/C (second compound 0.0316 µM, first compound 0.0949 µM) was 0.23% and the viability, T/C (second compound 0.0316 µM, first compound 0.3 µM) was 0.27%. It also gave a viability, T/C (second compound 0.1 µM, first compound 0.000949 µM) of 68.9%, a viability, T/C (second compound 0.1 µM, first compound 0.003 µM) of 83.1% and a viability, T/C (second compound 0.1 µM, first compound 0.00949 µM) of 2.27%. It also gave a viability, T/C (second compound 0.1 µM, first compound 0.03 µM) of 0.42%, a viability, T/C (second compound 0.1 µM, first compound 0.0949 µM) of 0.14% and a viability, T/C (second compound 0.1 µM, first compound 0.3 µM) of 0.34%. For the same compound, the viability, T/C (second compound 0.316 µM, first compound 0.000949 µM) was 20.8%, the viability, T/C (second compound 0.316 µM, first compound 0.003 µM) was 14.3% and the viability, T/C (second compound 0.316 µM, first compound 0.00949 µM) was 0.46%. The viability, T/C (second compound 0.316 µM, first compound 0.03 µM) was 0.14%, the viability, T/C (second compound 0.316 µM, first compound 0.0949 µM) was 0.13% and the viability, T/C (second compound 0.316 µM, first compound 0.3 µM) was 0.15%. For the same compound, the viability, T/C (second compound 1 µM, first compound 0.000949 µM) was 0.31%, the viability, T/C (second compound 1 µM, first compound 0.003 µM) was 0.22% and the viability, T/C (second compound 1 µM, first compound 0.00949 µM) was 1.17%. It also gave a viability, T/C (second compound 1 µM, first compound 0.03 µM) of 0.2%, a viability, T/C (second compound 1 µM, first compound 0.0949 µM) of 0.1% and a viability, T/C (second compound 1 µM, first compound 0.3 µM) of 0.14%. It also gave a viability, T/C (second compound 3.16 µM, first compound 0.000949 µM) of 0.33%, a viability, T/C (second compound 3.16 µM, first compound 0.003 µM) of 0.27% and a viability, T/C (second compound 3.16 µM, first compound 0.00949 µM) of 0.28%. For the same compound, the viability, T/C (second compound 3.16 µM, first compound 0.03 µM) was 0.14%, the viability, T/C (second compound 3.16 µM, first compound 0.0949 µM) was 0.4% and the viability, T/C (second compound 3.16 µM, first compound 0.3 µM) was 0.25%. For the same compound, the viability, T/C (second compound 10 µM, first compound 0.000949 µM) was 0.09%, the viability, T/C (second compound 10 µM, first compound 0.003 µM) was 3.32% and the viability, T/C (second compound 10 µM, first compound 0.00949 µM) was 3.67%. It also gave a viability, T/C (second compound 10 µM, first compound 0.03 µM) of 0.13%, a viability, T/C (second compound 10 µM, first compound 0.0949 µM) of 0.18% and a viability, T/C (second compound 10 µM, first compound 0.3 µM) of 0.22%.
Work on `O=C(c1cc(Cc2n[nH]c(=O)c3ccccc23)ccc1F)N1CCN(C(=O)C2CC2)CC1` + CN1CCN(c2cc(C(=O)Nc3cc4cc(-c5cnn(C)c5)ccc4cn3)ccn2)CC1 yielded an IC50 (second compound 0.0316 µM) greater than 10000 nM, an IC50 (second compound 0.1 µM) greater than 10000 nM and an IC50 (second compound 0.316 µM) of less than 31.6 nM. For the same compound, the IC50 (second compound 1 µM) was less than 31.6 nM, the IC50 (second compound 3.16 µM) was less than 31.6 nM and the IC50 (second compound 10 µM) was less than 31.6 nM. It also gave a viability, T/C (second compound 0.0316 µM, first compound 0.0316 µM) of 86.3%, a viability, T/C (second compound 0.0316 µM, first compound 0.1 µM) of 88% and a viability, T/C (second compound 0.0316 µM, first compound 0.316 µM) of 89.6%. For the same compound, the viability, T/C (second compound 0.0316 µM, first compound 1 µM) was 94.7%, the viability, T/C (second compound 0.0316 µM, first compound 3.16 µM) was 68.2% and the viability, T/C (second compound 0.0316 µM, first compound 10 µM) was 83.5%. For the same compound, the viability, T/C (second compound 0.1 µM, first compound 0.0316 µM) was 71.1%, the viability, T/C (second compound 0.1 µM, first compound 0.1 µM) was 70.4% and the viability, T/C (second compound 0.1 µM, first compound 0.316 µM) was 69.2%. For the same compound, the viability, T/C (second compound 0.1 µM, first compound 1 µM) was 65.6%, the viability, T/C (second compound 0.1 µM, first compound 3.16 µM) was 46.4% and the viability, T/C (second compound 0.1 µM, first compound 10 µM) was 60.5%. The viability, T/C (second compound 0.316 µM, first compound 0.0316 µM) was 23.5%, the viability, T/C (second compound 0.316 µM, first compound 0.1 µM) was 20.9% and the viability, T/C (second compound 0.316 µM, first compound 0.316 µM) was 17.7%. For the same compound, the viability, T/C (second compound 0.316 µM, first compound 1 µM) was 12.1%, the viability, T/C (second compound 0.316 µM, first compound 3.16 µM) was 21.3% and the viability, T/C (second compound 0.316 µM, first compound 10 µM) was 15.1%. It also gave a viability, T/C (second compound 1 µM, first compound 0.0316 µM) of 0.42%, a viability, T/C (second compound 1 µM, first compound 0.1 µM) of 0.25% and a viability, T/C (second compound 1 µM, first compound 0.316 µM) of 0.36%. The viability, T/C (second compound 1 µM, first compound 1 µM) was 0.19%, the viability, T/C (second compound 1 µM, first compound 3.16 µM) was 0.32% and the viability, T/C (second compound 1 µM, first compound 10 µM) was 0.44%. For the same compound, the viability, T/C (second compound 3.16 µM, first compound 0.0316 µM) was 0.18%, the viability, T/C (second compound 3.16 µM, first compound 0.1 µM) was 0.2% and the viability, T/C (second compound 3.16 µM, first compound 0.316 µM) was 0.63%. For the same compound, the viability, T/C (second compound 3.16 µM, first compound 1 µM) was 0.28%, the viability, T/C (second compound 3.16 µM, first compound 3.16 µM) was 0.34% and the viability, T/C (second compound 3.16 µM, first compound 10 µM) was 2.51%. It also gave a viability, T/C (second compound 10 µM, first compound 0.0316 µM) of 0.11%, a viability, T/C (second compound 10 µM, first compound 0.1 µM) of 0.31% and a viability, T/C (second compound 10 µM, first compound 0.316 µM) of 3.38%. The viability, T/C (second compound 10 µM, first compound 1 µM) was 0.18%, the viability, T/C (second compound 10 µM, first compound 3.16 µM) was 0.23% and the viability, T/C (second compound 10 µM, first compound 10 µM) was 0.69%.

Source: PubChem BioAssay AID2060601 (Molecular Pharmacology Branch, DTP, NCI, 2025)
